Patent US7592330B2, “Methods and compositions for preserving the viability of photoreceptor cells” (Massachusetts Eye and Ear Infirmary, priority 2005, dated 2009)

Key:
photoreceptor cells [1] = format: in vivo, Brown Norway rats
Description: Methods. Retinal detachments were created in the eyes of Brown Norway rats by injecting 10% hyaluronic acid into the subretinal space using a transvitreal approach. FK506 (tacrolimus) (5 mg/kg/day) diluted in PBS was administered by gastric gavage one day prior to the induction of retinal detachment, on the day of the induction, and for the two following days (n=6). Control animals received the same volume of PBS (0.5 cc) by gastric gavage one day prior to the induction of retinal detachment, on the day of the induction, and for the two following days (n=3). […] All eyes were enucleated 72 hours after retinal detachment induction and embedded in paraffin. Fourteen micrometer sections were subsequently obtained. DNA fragmentation was examined using terminal dUTP-biotin nick end-labeling (TUNEL). A masked observer counted TUNEL-positive cells and obtained an average from three adjacent standardized fields in two serial sections.

[2] = system: calpain-mediated cleavage of calcineurin; assay: ALLM treatment in experimental retinal detachment, Western blot of calcineurin cleavage (Example 4, Experiment #2); format: in vivo, Brown Norway rats
Text: The following experiments determine that calcineurin is cleaved after retinal detachment and that pharmacologic inhibition of calpain will prevent this activation. In particular, retinas of rats with experimental retinal detachment will be examined for biochemical evidence of calcineurin activation. These experiments also determine that calcineurin cleavage is mediated by the calcium-dependent enzyme, calpain. […] Finally, they determine that calcineurin inhibitors like FK506 have a neuroprotective effect on photoreceptor cells death.
One day prior to surgical induction, animals are started on a treatment of ALLM (20 mg/kg/day, intraperitoneal administration), a calpain inhibitor, or vehicle control, and administration continues throughout the study. For this experiment, the animals are followed for three or five days after retinal detachment. At the end of this period, animals are sacrificed and their eyes are removed for either protein isolation or immunohistochemistry. Fellow eyes are used as controls. Western blot analysis is used to determine levels of retinal calcineurin and calcineurin cleavage products. Six animals per group are used.
Retinal Detachment Model. […]

caspase 7 = biological target: T1, caspase 7 (Homo sapiens, UniProt P55210); details: cited from earlier work
T1 sequence (P55210 24-198 limits assumed): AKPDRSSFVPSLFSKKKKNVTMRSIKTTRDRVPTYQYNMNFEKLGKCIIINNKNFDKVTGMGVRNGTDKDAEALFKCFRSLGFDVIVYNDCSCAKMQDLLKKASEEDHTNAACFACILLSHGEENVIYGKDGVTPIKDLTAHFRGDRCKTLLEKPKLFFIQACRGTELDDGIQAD
T1 sequence (P55210 207-303 limits assumed): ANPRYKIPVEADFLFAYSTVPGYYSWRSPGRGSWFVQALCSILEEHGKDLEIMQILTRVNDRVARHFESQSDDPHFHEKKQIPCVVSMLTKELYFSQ

caspase 1 = biological target: T2, caspase 1 (Homo sapiens, UniProt P29466); details: cited from earlier work
T2 sequence (P29466 120-297 limits assumed): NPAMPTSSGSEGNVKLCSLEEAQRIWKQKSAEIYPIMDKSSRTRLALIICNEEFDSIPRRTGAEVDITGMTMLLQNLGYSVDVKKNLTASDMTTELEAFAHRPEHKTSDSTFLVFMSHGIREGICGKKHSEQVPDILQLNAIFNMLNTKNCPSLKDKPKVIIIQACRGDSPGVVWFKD
T2 sequence (P29466 317-404 limits assumed): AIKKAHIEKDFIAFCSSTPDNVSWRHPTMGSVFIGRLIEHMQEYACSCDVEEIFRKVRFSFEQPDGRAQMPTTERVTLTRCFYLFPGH

caspase 3 = biological target: T3, caspase 3 (Homo sapiens, UniProt P42574); details: cited from earlier work
T3 sequence (P42574 29-175 limits assumed): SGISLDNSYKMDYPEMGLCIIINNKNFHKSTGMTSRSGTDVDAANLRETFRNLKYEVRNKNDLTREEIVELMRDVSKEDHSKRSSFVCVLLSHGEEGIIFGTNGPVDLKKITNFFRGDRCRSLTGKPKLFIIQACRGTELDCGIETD
T3 sequence (P42574 176-277 limits assumed): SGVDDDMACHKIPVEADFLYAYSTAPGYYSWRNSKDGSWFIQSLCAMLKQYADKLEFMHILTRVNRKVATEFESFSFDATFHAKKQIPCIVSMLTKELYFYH

caspase 4 = biological target: T4, caspase 4 (Homo sapiens, UniProt P49662); details: cited from earlier work
T4 sequence (P49662 81-270 limits assumed): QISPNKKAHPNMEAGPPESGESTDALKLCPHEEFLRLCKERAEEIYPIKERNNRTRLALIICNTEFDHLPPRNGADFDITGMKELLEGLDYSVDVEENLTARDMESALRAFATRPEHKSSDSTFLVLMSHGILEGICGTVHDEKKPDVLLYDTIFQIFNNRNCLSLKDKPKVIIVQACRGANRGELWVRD
T4 sequence (P49662 290-377 limits assumed): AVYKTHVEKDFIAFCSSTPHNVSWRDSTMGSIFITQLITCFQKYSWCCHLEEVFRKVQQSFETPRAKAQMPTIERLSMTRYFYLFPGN

photoreceptor cells [3] = assay: Caspase inhibitor injected into region of retinal detachment, TUNEL staining (Example 2); format: in vivo, Brown-Norway rats; details: 25 μl of 0.2, 2 or 20 mM inhibitor in DMSO into region of detachment; 72 hours; relative to untreated eyes
Description: The caspase inhibitor, Z-Val-Ala-Asp-fluoromethylketone is dissolved in dimethyl sulfoxide (DMSO) to give the final concentrations of 0.2 mM, 2 mM, and 20 mM. After creating the retinotomy with the subretinal injector, a small amount of Healon® sodium hyaluronate is injected in the subretinal space so as to elevate the retina. After retinal elevation, a Hamilton syringe with a 33 gauge needle is introduced through the retinotomy site, and 25 μl of inhibitor is injected into the region of detachment. About 25 minutes later, Healon® sodium hyaluronate is injected, via the same retinotomy site, to maintain the retinal detachment. Healon® sodium hyaluronate is injected until resistance is detected.
Only the right eyes of rats are used in evaluating the role of the Z-VAD-FMK inhibitor. The left eyes serve as the controls. Five animals are used for each concentration of inhibitor (namely, no inhibitor, 0.2 mM inhibitor, 2 mM inhibitor, and 20 mM inhibitor). For the no inhibitor control, 25 μl of DMSO is injected into the region of detachment followed by Healon® sodium hyaluronate.
After 72 hours, the eyes are enucleated and the rats euthanized. The enucleated eyes are paraffin embedded as described in Example 1. Then, 6 μm sections from the posterior segments are analyzed by TUNEL staining as described in Example 1.

For `C=CC[C@@H]1/C=C(\C)C[C@H](C)C[C@H](OC)[C@H]2O[C@@](O)(C(=O)C(=O)N3CCCC[C@H]3C(=O)O[C@H](/C(C)=C/[C@@H]3CC[C@@H](O)[C@H](OC)C3)[C@H](C)[C@@H](O)CC1=O)[C@H](C)C[C@@H]2OC` [FK506, FK506 (tacrolimus)], the “TUNEL-positive cells (mean±SD)” value (photoreceptor cells [1]; FK506 5 mg/kg/day by gastric gavage, from one day prior to detachment, eyes enucleated 72 hours after retinal detachment, n=6) was 130.13±54.3, the “morphological signs of toxicity in the eyes” value (photoreceptor cells [1]; rat, in vivo, 5 mg/kg/day) was “no morphological signs of toxicity” and the “reduction in the mean number of TUNEL-positive cells” value (photoreceptor cells [1]; treated group vs PBS control, 72 hours after detachment, p<0.05) was 35%.
With Ac-Leu-Leu-Met-H (aldehyde) [ALLM] the “levels of retinal calcineurin and calcineurin cleavage products” value ([2]; ALLM 20 mg/kg/day intraperitoneal, three or five days after retinal detachment) was “inhibition of the calpain-mediated cleavage pathway” and the photoreceptor cell death ([2]; treatment with ALLM in experimental retinal detachment) was “protect photoreceptor cells from death”.
In the case of “Ac-Tyr-Val-Ala-Asp-aldehyde (SEQ ID NO: 7)”, the Ki (caspase 7) is listed as no less than 50000 nM, the Ki (caspase 1) is listed as 10 nM and the Ki (caspase 3) is listed as no less than 50000 nM. For the same compound, the Ki (caspase 4) was 10 nM.
In the case of Z-Val-Ala-Asp-fluoromethylketone, the “inhibition of caspase 7” value (caspase 7) is given as “inhibits”, the “inhibition of caspase 1” value (caspase 1) is given as “inhibits” and the “inhibition of caspase 3” value (caspase 3) is given as “inhibits”. For the same compound, the “TUNEL-positive photoreceptor cells in the region of retinal detachment” value (photoreceptor cells [3]) was “fewer photoreceptor cells in the region of retinal detachment that stain TUNEL-positive” and the “inhibition of caspase 4” value (caspase 4) was “inhibits”.
